Test results from patent US6248694A, “Plant growth regulator compositions” (BASF Aktiengesellschaft, priority 1999, dated 2001).

Experiments:
[1] = pH in water 1 wt. % concentration; type: physicochemical; details: 1 wt. % in water
From the text: 5) pH in water 1 wt. % concentration 6.78

[2] = Hygroscopicity (relative water uptake at 50 and 60% relative humidity in air); type: physicochemical
Procedure: 4) Hygroscopicity of compound 1.1 in comparison to mepiquat chloride:
Both compounds were dried to a constant dry weight in vacuum at 40° C. 48 hours. Afterwards approx. 1 g samples (two series of 3 samples each and average values) were stored under 50 and 60% relative humidity in air for 2 and/or 4 weeks. The following results in relative water uptake (wt. % w/w) were found: […]

[3] = Hygroscopic nature, observation in words; type: physicochemical; details: solid dried at 50° C. under reduced pressure
[4] = Corrosion trial, test series 2 (DIN No. 52168, modified steel plates, 14 days)
Procedure: (§1) Comparison of (A) mepiquat chloride, with (B) a mixture of mepiquat chloride with disodium octaborate tetrahydrate (Solubor®), and (C) mepiquat pentaborate (compound 1.9) of example 13.
(§2) The tests of this example were conducted according to the method of DIN (Deutsche Industrie Norm) No. 52168, part 1 of November 1981, but using modified steel plates.
(§3) The corrosion tests were conducted on the three different formulations prepared as set forth below. Each formulation was tested with the different steel types set forth below.
(§4) The first formulation, referred to as "mepiquat chloride" in the tables below, was an 8.33% mepiquat chloride aqueous solution (by weight) prepared by diluting a 600 g/l mepiquat chloride preconcentrate. The second formulation, referred to as "mepiquat chloride plus borate salt" in the tables below, was prepared by adding 15 wt. % disodium octaborate tetrahydrate to the same 8.33% aqueous solution of mepiquat chloride as was used in the first formulation.
(§5) The third formulation, referred to as "mepiquat pentaborate"--in the tables below, was prepared from compound 1.9, example 13 by diluting with water to form a 12% mepiquat pentaborate (wt. %) aqueous solution.
(§6) All three abovementioned formulations contained equal amounts of the mepiquat cation.
(§7) One-half liter quantities of each formulation were placed in polyethylene plastic containers (10 cm×10 cm×12 cm (height)). Into each of the containers, two series of steel plate types--12×5 cm^2 (0.2 cm thickness) were inserted.
(§8) In modification of the mentioned DIN, the steel plates were prepared with an additional oxyacetylene torched area, approximately 5 to 7 mm large, horizontally in the middle of the steel plates.
(§9) The torched areas were placed below the solution's surface. (The aim of this modification of the test was to simulate a more serious corrosion and endangering situation.)
(§10) The position of the plates were such that approximately 1/3 of the plates were in air contact. After 14 days the steel plates were examined, washed and cleaned, dried and weighed according to the DIN method above.

[5] = Corrosion trial, test series 1 (DIN No. 52168, modified steel plates, 14 days)
Procedure: as §1, §2, §3, §4, §5, §6, §7, §8, §9, §10

[6] = 50% relative humidity in air, 2 weeks
[7] = 60% relative humidity in air, 2 weeks
[8] = 4 weeks at 50% relative humidity in air
[9] = 4 weeks at 60% relative humidity in air

Compound	pH in water 1 wt. % concentration [1]	Hygroscopicity: water uptake [2, 8]	Hygroscopicity: water uptake [2, 9]	also measured
C[N+]1(C)CCCCC1.O.O.O.O.O.O.OB(O)O.OB(O)O.OB(O)O.OB(O)O.OB(O)O.OB(O)O.OB(O)O.OB(O)O.OB(O)O.[Na+].[O-]B([O-])O [Compound 1.1, N,N-Dimethylpiperidinium sodium decaborate hexahydrate]	6.78	–	–	Relative water uptake [2, 6]: 4.1 wt. % w/w; Relative water uptake [2, 7]: 7.8 wt. % w/w
C[N+]1(C)CCCCC1 [N,N-dimethylpiperidiniumbicarbonate]	–	–	–	Hygroscopic nature of isolated product [3]: extremely hygroscopic
C[N+]1(C)CCCCC1.[Cl-] [mepiquat chloride, N,N-dimethylpiperidinium chloride, reference compound]	–	–	–	pH values, end ([4]; ST 13, end): 8.34; pH values, initial ([4]; ST 13, initial): 7.67; appearance of the resulting formulations ([4]; ST 13, test series 2): yellow to orange solution, cloudy, sedimentations; pH values, end ([5]; ST 37, end): 7.96; pH values, initial ([5]; ST 37, initial): 7.67; appearance of the resulting formulations ([5]; ST 37, test series 1): yellow to orange solution, cloudy, sedimentations; Relative water uptake [2, 6]: 52 wt. % w/w; Relative water uptake ([2]; 50% relative humidity in air, 4 weeks): 58 wt. % w/w; Relative water uptake [2, 7]: 71 wt. % w/w; Relative water uptake ([2]; 60% relative humidity in air, 4 weeks): 78 wt. % w/w
[Dimethylpiperidinium]2^2+ [B12 Na4 O21 ]^2-×20 H2 O [Compound 1.3]	–	13.6 wt. %	28.8 wt. %	–
[Dimethylpiperidinium]2^2+ [B18 Na2 O29 ]^2-×8 H2 O [Compound 1.2]	7.4	5.2 wt. %	7.0 wt. %	–
[Dimethylpiperidinium]^+ [B6.4 Na0.3 O10.3 ]^-×4 H2 O [Compound 1.7]	–	1.9 wt. %	4.1 wt. %	–
[Dimethylpiperidinium]^+ [B8 (NH4)0.3 O12.7 ]^-×4 H2 O [Compound 1.5]	6.8	0.4 wt. %	0.6 wt. %	–
[Dimethylpiperidinium]^+ [B9 Na0.9 O14.5 ]^-×6H2 O [Compound 1.6]	7.1	2.7 wt. %	9.0 wt. %	–
